Measurements: patent publication US11464770B2, “Anticancer pharmaceutical composition” (NATIONAL CANCER CENTER, priority 2016, dated 2022)
Where two headings read alike, the source gives them in different places.

Columns and labels:
[1] = test system: colorectal cancer cell lines (e.g. DLD-1, HCT 116, SW620, HCT-15, HCT-8, RKO); test: Cell based assay, cell viability (CellTiter-Glo), colorectal cancer cell lines; conditions: Homo sapiens, 72 hours treatment
Summary of the method: (§1)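 Commercial tumour lines, detached with trypsin-EDTA, were seeded and incubated 24 h. They were then dosed to 0–2 μM final, grown 72 h, and assessed for viability using CellTiter-Glo.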

melanoma cell lines = test: Cell based assay, cell viability (CellTiter-Glo), melanoma cell lines; conditions: Homo sapiens; LOX-IMVI cell line
Summary of the method: as §1

[2] = test system: ovarian cancer cell lines; test: Cell based assay, cell viability (CellTiter-Glo), ovarian cancer cell lines; conditions: Homo sapiens; OVCAR-3 cells
Summary of the method: as §1

[3] = DLD-1 cells, read-out: IC50, colorectal cancer cell line DLD-1
[4] = HCT 116 cells, read-out: IC50, colorectal cancer cell line HCT 116
[5] = HCT-8 cells, read-out: IC50, colorectal cancer cell line HCT-8
[6] = HCT-15 cells, read-out: IC50, colorectal cancer cell line HCT-15
[7] = HT-29 cells, read-out: IC50, colorectal cancer cell line HT-29
[8] = LoVo cells, read-out: IC50, colorectal cancer cell line LoVo
[9] = RKO cells, read-out: IC50, colorectal cancer cell line RKO
[10] = SW480 cells, read-out: IC50, colorectal cancer cell line SW480
[11] = SW-620, SW620 cells, read-out: IC50, colorectal cancer cell line SW620

IC50 [1, 3] | IC50 [1, 4] | IC50 [1, 5] | IC50 [1, 6] | IC50 [1, 7] | IC50 [1, 8] | IC50 [1, 9] | IC50 [1, 10] | IC50 [1, 11] | IC50 (melanoma cell lines) | IC50 [2] | SMILES
1240 nM | 1320 nM | 1290 nM | 1490 nM | > 10000 nM | > 2000 nM | 1150 nM | 1580 nM | 1360 nM | 880 nM | 840 nM | CC(=O)c1c([S+]([O-])Cc2ccc(Cl)nc2)[nH]c2c(Br)ccc(Cl)c2c1=O (stereo not shown) [Compound 104, 3-acetyl-8-bromo-5-chloro-2-(((6-chloropyridin-3-yl)methyl)sulfinyl)quinolin-4(1H)-one]
> 2000 nM | > 2000 nM | > 2000 nM | > 2000 nM | > 10000 nM | > 2000 nM | > 2000 nM | > 2000 nM | > 2000 nM | > 2000 nM | > 2000 nM | COCCNc1ccc(C[S+]([O-])c2[nH]c3c(Br)ccc(Cl)c3c(=O)c2C(C)=O)cn1 (stereo not shown) [Compound 105, 3-acetyl-8-bromo-5-chloro-2-(((6-((2-methoxyethyl)amino)pyridin-3-yl)methyl)sulfinyl)quinolin-4(1H)-one]
> 2000 nM | > 2000 nM | > 2000 nM | > 2000 nM | > 10000 nM | > 2000 nM | > 2000 nM | > 2000 nM | > 2000 nM | > 2000 nM | > 2000 nM | CC(=O)c1c([S+]([O-])Cc2nonc2C)[nH]c2c(Br)ccc(Cl)c2c1=O (stereo not shown) [Compound 106, 3-acetyl-8-bromo-5-chloro-2-(((4-methyl-1,2,5-oxadiazol-3-yl)methyl)sulfinyl)quinolin-4(1H)-one]
> 2000 nM | > 2000 nM | > 2000 nM | > 2000 nM | > 10000 nM | > 2000 nM | > 2000 nM | > 2000 nM | > 2000 nM | > 2000 nM | > 2000 nM | CC(=O)c1c([S+]([O-])Cc2cnc3[nH]ccc3c2)[nH]c2c(Br)ccc(Cl)c2c1=O (stereo not shown) [Compound 107, 2-(((1H-pyrrolo[2,3-b]pyridin-5-yl)methyl)sulfinyl)-3-acetyl-8-bromo-5-chloroquinolin-4(1H)-one]

Continued, molecule first:

SMILES | IC50 [1, 3] | IC50 [1, 4] | IC50 [1, 5] | IC50 [1, 6] | IC50 [1, 7] | IC50 [1, 8] | IC50 [1, 9] | IC50 [1, 10] | IC50 [1, 11] | IC50 (melanoma cell lines) | IC50 [2]
COc1cccc2[nH]c([S+]([O-])Cc3ccc(S(F)(F)(F)(F)F)cc3)c(C(C)=O)c(=O)c12 (stereo not shown) [Compound 93, 3-acetyl-5-methoxy-2-((4-(pentafluoro--sulfanyl)benzyl)sulfinyl)quinolin-4(1H)-one] | > 2000 nM | > 2000 nM | > 2000 nM | > 2000 nM | > 10000 nM | > 2000 nM | > 2000 nM | > 2000 nM | > 2000 nM | > 2000 nM | > 2000 nM
COc1cccc2[nH]c([S+]([O-])Cc3cc(C)on3)c(C(C)=O)c(=O)c12 (stereo not shown) [Compound 94, 3-acetyl-5-methoxy-2-(((5-methylisoxazol-3-yl)methyl)sulfinyl)quinolin-4(1H)-one] | > 2000 nM | > 2000 nM | > 2000 nM | > 2000 nM | > 10000 nM | > 2000 nM | > 2000 nM | > 2000 nM | > 2000 nM | > 2000 nM | 1100 nM
Cc1cc(C[S+]([O-])c2[nH]c3c(Br)ccc(Cl)c3c(=O)c2C(=O)C2CC2)no1 (stereo not shown) [Compound 96, 8-bromo-5-chloro-3-(cyclopropanecarbonyl)-2-(((5-methylisoxazol-3-yl)methyl)sulfinyl)quinolin-4(1H)-one] | 1820 nM | 1530 nM | > 2000 nM | 1870 nM | > 10000 nM | > 2000 nM | 1580 nM | > 2000 nM | 1660 nM | > 2000 nM | 750 nM
Cc1cc(C[S+]([O-])c2[nH]c3c(Cl)ccc(Cl)c3c(=O)c2C(=O)C2CC2)no1 (stereo not shown) [Compound 97, 5,8-dichloro-3-(cyclopropanecarbonyl)-2-(((5-methylisoxazol-3-yl)methyl)sulfinyl)quinolin-4(1H)-one] | 1360 nM | 1250 nM | 1350 nM | 1420 nM | > 10000 nM | 1520 nM | 1270 nM | 1690 nM | 1100 nM | 1030 nM | 590 nM
CC(=O)c1c([S+]([O-])Cc2ccc(C#N)s2)[nH]c2c(Br)ccc(Cl)c2c1=O (stereo not shown) [Compound 98, 5-(((3-acetyl-8-bromo-5-chloro-4-oxo-1,4-dihydroquinolin-2-yl)sulfinyl)methyl)thiophene-2-carbonitrile] | 1520 nM | 1480 nM | 1660 nM | 1730 nM | > 10000 nM | > 2000 nM | 1340 nM | > 2000 nM | 1760 nM | 1340 nM | 1230 nM
CC(=O)c1c([S+]([O-])Cc2ccc(-n3cccn3)nc2)[nH]c2c(Br)ccc(Cl)c2c1=O (stereo not shown) [Compound 99, 2-(((6-(1H-pyrazol-1-yl)pyridin-3-yl)methyl)sulfinyl)-3-acetyl-8-bromo-5-chloroquinolin-4(1H)-one] | 870 nM | 820 nM | 980 nM | 970 nM | > 10000 nM | 1450 nM | 950 nM | 1300 nM | 920 nM | 870 nM | 630 nM
CC(=O)c1c([S+]([O-])Cc2ccc(N)nc2)[nH]c2c(Br)ccc(Cl)c2c1=O (stereo not shown) [Compound 100, 3-acetyl-2-(((6-aminopyridin-3-yl)methyl)sulfinyl)-8-bromo-5-chloroquinolin-4(1H)-one] | > 2000 nM | > 2000 nM | > 2000 nM | > 2000 nM | > 10000 nM | > 2000 nM | > 2000 nM | > 2000 nM | > 2000 nM | > 2000 nM | > 2000 nM
O=C(c1c([S+]([O-])Cc2ccc(SC(F)(F)F)cc2)[nH]c2c(Br)ccc(Cl)c2c1=O)C1CC1 (stereo not shown) [Compound 101, 8-bromo-5-chloro-3-(cyclopropanecarbonyl)-2-((4-((trifluoromethyl)thio)benzyl)sulfinyl)quinolin-4(1H)-one] | > 2000 nM | 1740 nM | 1610 nM | > 2000 nM | > 10000 nM | > 2000 nM | 1910 nM | > 2000 nM | > 2000 nM | > 2000 nM | 1990 nM
CC(=O)c1c([S+]([O-])Cc2ccc(C(F)(F)F)nc2C)[nH]c2c(Br)ccc(Cl)c2c1=O (stereo not shown) [Compound 102, 3-acetyl-8-bromo-5-chloro-2-(((2-methyl-6-(trifluoromethyl)pyridin-3-yl)methyl)sulfinyl)quinolin-4(1H)-one] | 1160 nM | 1220 nM | 1240 nM | 1330 nM | > 10000 nM | 1940 nM | 1190 nM | 1600 nM | 1220 nM | 860 nM | 930 nM
CC(=O)c1c([S+]([O-])Cc2ccc(NS(C)(=O)=O)cc2)[nH]c2c(Br)ccc(Cl)c2c1=O (stereo not shown) [Compound 103, N-(4-(((3-acetyl-8-bromo-5-chloro-4-oxo-1,4-dihydroquinolin-2-yl)sulfinyl)methyl)phenyl)methane-sulfonamide] | > 2000 nM | > 2000 nM | > 2000 nM | > 2000 nM | > 10000 nM | > 2000 nM | > 2000 nM | > 2000 nM | > 2000 nM | > 2000 nM | > 2000 nM
